Test results as given in US7419997B2, “Tetrahydrocarbazole derivatives and their pharmaceutical use” (SmithKline Beecham Corporation, priority 2003, dated 2008).

What follows are molecules tested on episomal HPV16 DNA in W12-20850 cells (assay: W-12 cellular assay (episomal HPV-16 DNA, hybrid capture)). Conditions: Human papillomavirus 16, 96 h, four days incubation, episomal HPV-16 DNA quantified by hybrid capture, inhibition relative to untreated control cells.
Type: cell-based, HPV16 (human papillomavirus)
Protocol: Compounds of the current invention are believed useful in the treatment and/or prophylaxis of conditions and diseases associated with HPV infection. Activity mediated through HPV was determined using the following W-12 cellular assay.
The W12 cell line used contains HPV16 DNA and was derived from a low-grade cervical dysplasia tissue by Margaret Stanley and subsequently clonally selected by Paul Lambert (University of Wisconsin). One of these clones, W12-20850, contains 1000 copies of episomal HPV16 DNA and was used in the cell-based assay. W12-20850 cells were routinely cultured with a gamma-irradiated (6000 rads) feeder layer of 3T3 cells. Assays, however, were run in the absence of a 3T3 feeder layer. W12-20850 and 3T3 cells were routinely split when they were sub-confluent. W12-20850 were grown in W12 Medium which is constituted of 25% DMEM (Gibco BRL, Cat # 12430-047), 75% F12 Media (Gibco BRL, Cat # 11765-021) and 2.5% FBS. The additives include […] Adenine (Sigma, Cat # A-9795), 0.4 mg/ml Hydrocortisone (Calbiochem, Cat # 386698), […] Bovine Insulin (Sigma, Cat # I-1882), 8.4 ng/ml cholera toxin (Fluka, Cat # 26694) and 10 ng/ml EGF (Invitrogen, Cat # 13247-051). 3T3 cells were grown in DMEM containing 10% FBS. Cell lines were incubated at 37° C., in the presence of 5% CO2.
For the assay, W12-20850 cells were seeded into a 96 well plate-containing compound. Plates were incubated at 37° C. in the presence of 5% CO2, for four days. On the fourth day, cells were lysed and the amount of episomal HPV-16 DNA was quantified using a non-radioactive hybrid capture technique with HPV-16 specific capture and detection probes. The percent inhibition relative to untreated control cells was then determined.
The hybrid capture assay is run in a 96 well plate format. Hybridization plates (Nunc Maxisorb Cat # 450320) were coated with a mixture of capture probe and ReactiBind solution for at least 4 hours and then washed with 0.2)(SSC, 0.05% Tween20 (SSCT) prior to blocking with 150 μl/well of 0.2 N NaOH, 1% Igepal, 10 mg/ml hsDNA for 6-8 hours. The hybridization was carried out by mixing 271 μl of lysed cells with 45 μl of denatured detection probe in 6M guanidine isothiocyanate. To prevent evaporation, 50 μl of mineral oil was added to each well. The plate was then heated to 90° C. for 6.5 minutes and the hybridization continued at 42° C. overnight. Assay plates were washed 6 times with SSC/T. Anti-digoxigenin HRP-conjugated Ab (Boehringer Mannheim 1207733, 1:5000) was incubated in the wells for 30 min at room temperature and washed with PBS/0.05% Tween-20. SuperSignal LBA substrate (Pierce Cat # 37070) was added, and chemiluminescence was measured using Wallac 1420 Victor plate reader.

Row | Compound | IC50
1 | COc1ccc(NC(=O)NC2CCCc3c2[nH]c2ccc(Br)cc32)c(C)c1 (centres unmarked) [Example 11, N-(6-Bromo-2,3,4,9-tetrahydro-1H-carbazol-1-yl)-N′-(4-methoxy-2-methylphenyl)urea] | > 1000 nM
2 | COc1ccc(NC(=O)NC2CCCc3c2[nH]c2ccc(Br)cc32)cc1Cl (centres unmarked) [Example 12, N-(6-Bromo-2,3,4,9-tetrahydro-1H-carbazol-1-yl)-N′-(3-chloro-4-methoxyphenyl)urea] | > 10000 nM
3 | O=C(N[C@@H]1CCCc2c1[nH]c1ccc(Br)cc21)c1ccccc1 [Example 14B, N-[(1R)-6-bromo-2,3,4,9-tetrahydro-1H-carbazol-1-yl]benzamide] | 10 nM
4 | O=C(N[C@H]1CCCc2c1[nH]c1ccc(Br)cc21)c1ccccc1 [Example 14C, N-[(1S)-6-bromo-2,3,4,9-tetrahydro-1H-carbazol-1-yl]benzamide] | 5000 nM
5 | O=C(Cc1ccccc1)NC1CCCc2c1[nH]c1ccc(Br)cc21 (centres unmarked) [Example 15, N-(6-Bromo-2,3,4,9-tetrahydro-1H-carbazol-1-yl)-2-phenylacetamide] | 580 nM
6 | O=C(NC1CCCc2c1[nH]c1ccc(Br)cc21)c1ccc([N+](=O)[O-])cc1 (centres unmarked) [Example 22, N-(6-Bromo-2,3,4,9-tetrahydro-1H-carbazol-1-yl)-4-nitrobenzamide] | 45 nM
7 | O=C(NC1CCCc2c1[nH]c1ccc(Br)cc21)c1ccc(Cl)cc1 (centres unmarked) [Example 23, N-(6-Bromo-2,3,4,9-tetrahydro-1H-carbazol-1-yl)4-chlorobenzamide] | 17 nM
8 | O=C(NC1CCCc2c1[nH]c1ccc(Br)cc21)c1ccc(C(F)(F)F)cc1 (centres unmarked) [Example 25, N-(6-Bromo-2,3,4,9-tetrahydro-1H-carbazol-1-yl)-4-(trifluoromethyl)benzamide] | 58 nM
9 | COc1cccc(C(=O)NC2CCCc3c2[nH]c2ccc(Br)cc32)c1 (centres unmarked) [Example 27, N-(6-Bromo-2,3,4,9-tetrahydro-1H-carbazol-1-yl)-3-methoxybenzamide] | 28 nM
10 | Cc1cccc(C(=O)NC2CCCc3c2[nH]c2ccc(Br)cc32)c1 (centres unmarked) [Example 28, N-(6-Bromo-2,3,4,9-tetrahydro-1H-carbazol-1-yl)-3-methylbenzamide] | 23 nM
11 | COc1ccccc1C(=O)NC1CCCc2c1[nH]c1ccc(Br)cc21 (centres unmarked) [Example 30, N-(6-Bromo-2,3,4,9-tetrahydro-1H-carbazol-1-yl)-2-methoxybenzamide] | > 10000 nM
12 | O=C(NC1CCCc2c1[nH]c1ccc(Br)cc21)c1ccccc1[N+](=O)[O-] (centres unmarked) [Example 31, N-(6-Bromo-2,3,4,9-tetrahydro-1H-carbazol-1-yl)-2-nitrobenzamide] | > 7300 nM
13 | O=C(NC1CCCc2c1[nH]c1ccccc21)c1ccccc1 (centres unmarked) [Example 34, N-(2,3,4,9-Tetrahydro-1H-carbazol-1-yl)benzamide] | > 10000 nM
14 | Cc1ccc2[nH]c3c(c2c1)CCCC3NC(=O)c1ccccc1 (centres unmarked) [Example 35, N-(6-Methyl-2,3,4,9-tetrahydro-1H-carbazol-1-yl)benzamide] | 184 nM
15 | O=C(N[C@@H]1CCCc2c1[nH]c1ccc(Cl)cc21)c1ccccc1 [Example 36B, N-[(1R)-6-chloro-2,3,4,9-tetrahydro-1H-carbazol-1-yl]benzamide] | 20 nM
16 | Cc1ccc(S(=O)(=O)NC2CCCc3c2[nH]c2ccc(Br)cc32)cc1 (centres unmarked) [Example 37, N-(6-Bromo-2,3,4,9-tetrahydro-1H-carbazol-1-yl)-4-methylbenzenesulfonamide] | 24 nM
17 | O=C(Nc1ccccc1)NC1CCCc2c1[nH]c1ccccc21 (centres unmarked) [Example 42, N-Phenyl-N′-(2,3,4,9-tetrahydro-1H-carbazol-1-yl)urea] | > 10000 nM

More lines, now with the values ahead:

Row | IC50 | Compound
18 | 548 nM | O=C(Nc1ccccc1)NC1CCCc2c1[nH]c1ccc(Br)cc21 (centres unmarked) [Example 9, N-(6-Bromo-2,3,4,9-tetrahydro-1H-carbazol-1-yl)-N′-phenylurea]
19 | 24000 nM | COc1ccc(NC(=O)NC2CCCc3c2[nH]c2ccc(Br)cc32)cc1 (centres unmarked) [Example 10, N-(6-Bromo-2,3,4,9-tetrahydro-1H-carbazol-1-yl)-N′-(4-methoxyphenyl)urea]
20 | 237 nM | CN(C)c1ccc(NC(=O)NC2CCCc3c2[nH]c2ccc(Br)cc32)cc1 (centres unmarked) [Example 13, N-(6-Bromo-2,3,4,9-tetrahydro-1H-carbazol-1-yl)-N′-[4-(dimethylamino)phenyl]urea]
21 | 32 nM | O=C(NC1CCCc2c1[nH]c1ccc(Br)cc21)c1ccccc1 (centres unmarked) [Example 14A, N-(6-Bromo-2,3,4,9-tetrahydro-1H-carbazol-1-yl)benzamide]
22 | 1200 nM | O=C(CCc1ccccc1)NC1CCCc2c1[nH]c1ccc(Br)cc21 (centres unmarked) [Example 16, N-(6-Bromo-2,3,4,9-tetrahydro-1H-carbazol-1-yl)-3-phenylpropanamide]
23 | 318 nM | O=C(/C=C/c1ccccc1)NC1CCCc2c1[nH]c1ccc(Br)cc21 (centres unmarked) [Example 17, N-(6-Bromo-2,3,4,9-tetrahydro-1H-carbazol-1-yl)-3-phenylprop-2-enamide]
24 | 44 nM | O=C(NC1CCCc2c1[nH]c1ccc(Br)cc21)OCc1ccccc1 (centres unmarked) [Example 18, Benzyl 6-bromo-2,3,4,9-tetrahydro-1H-carbazol-1-ylcarbamate]
25 | 5800 nM | O=C(NC1CCCc2c1[nH]c1ccc(Br)cc21)c1c(Cl)cccc1Cl (centres unmarked) [Example 19, N-(6-Bromo-2,3,4,9-tetrahydro-1H-carbazol-1-yl)-2,6-dichlorobenzamide]
26 | 20 nM | O=C(NC1CCCc2c1[nH]c1ccc(Br)cc21)c1ccc(F)cc1 (centres unmarked) [Example 20, N-(6-Bromo-2,3,4,9-tetrahydro-1H-carbazol-1-yl)-4-fluorobenzamide]
27 | 22 nM | COc1ccc(C(=O)NC2CCCc3c2[nH]c2ccc(Br)cc32)cc1 (centres unmarked) [Example 21, N-(6-Bromo-2,3,4,9-tetra hydro-1H-carbazol-1-yl)-4-methoxybenzamide]
28 | 8 nM | Cc1ccc(C(=O)NC2CCCc3c2[nH]c2ccc(Br)cc32)cc1 (centres unmarked) [Example 24, N-(6-Bromo-2,3,4,9-tetrahydro-1H-carbazol-1-yl)-4-methylbenzamide]
29 | 14 nM | O=C(NC1CCCc2c1[nH]c1ccc(Br)cc21)c1cccc(F)c1 (centres unmarked) [Example 26, N-(6-Bromo-2,3,4,9-tetrahydro-1H-carbazol-1-yl)-3-fluorobenzamide]
30 | 9 nM | O=C(NC1CCCc2c1[nH]c1ccc(Br)cc21)c1ccccc1F (centres unmarked) [Example 29, N-(6-Bromo-2,3,4,9-tetrahydro-1H-carbazol-1-yl)-2-fluorobenzamide]
31 | 1400 nM | O=C(NC1CCCc2c1[nH]c1ccc(Br)cc21)c1ccccc1Cl (centres unmarked) [Example 32, N-(6-Bromo-2,3,4,9-tetrahydro-1H-carbazol-1-yl)-2-chlorobenzamide]
32 | 497 nM | Cc1ccccc1C(=O)NC1CCCc2c1[nH]c1ccc(Br)cc21 (centres unmarked) [Example 33, N-(6-Bromo-2,3,4,9-tetrahydro-1H-carbazol-1-yl)-2-methylbenzamide]
33 | 60 nM | O=C(NC1CCCc2c1[nH]c1ccc(Cl)cc21)c1ccccc1 (centres unmarked) [Example 36A, N-(6-Chloro-2,3,4,9-tetrahydro-1H-carbazol-1-yl)benzamide]
34 | > 10000 nM | O=C(N[C@H]1CCCc2c1[nH]c1ccc(Cl)cc21)c1ccccc1 [Example 36C, N-[(1S)-6-chloro-2,3,4,9-tetrahydro-1H-carbazol-1-yl]benzamide]
35 | < 10 nM | O=C(NC1CCCc2c1[nH]c1ccc(Br)cc21)c1ccccn1 (centres unmarked) [Example 38, N-(6-Bromo-2,3,4,9-tetrahydro-1H-carbazol-1-yl)pyridine-2-carboxamide]
36 | 130 nM | O=C(NC1CCCc2c1[nH]c1ccc(Br)cc21)c1cccnc1 (centres unmarked) [Example 39, N-(6-Bromo-2,3,4,9-tetrahydro-1H-carbazol-1-yl)nicotinamide]
37 | 24 nM | O=C(NC1CCCc2c1[nH]c1ccc(Br)cc21)c1ccc(Cl)nc1 (centres unmarked) [Example 40, N-(6-Bromo-2,3,4,9-tetrahydro-1H-carbazol-1-yl)-6-chloronicotinamide]
38 | 180 nM | O=C(NC1CCCc2c1[nH]c1ccc(Br)cc21)c1ccncc1 (centres unmarked) [Example 41, N-(6-Bromo-2,3,4,9-tetrahydro-1H-carbazol-1-yl)isonicotinamide]
